Measurements taken from paper PMC7687008, “Small molecule inhibitors provide insights into the relevance of LAT1 and LAT2 in materno‐foetal amino acid transport” (Journal of Cellular and Molecular Medicine, 2020).
“And” between values parts separate entries of the source, which are not always exact repeats. Identical values can stand only once. “Also recorded” adds a separate entry of the source. Like-named read-outs stand apart in the source and are kept apart here.

How the values were obtained:
Caco-2 cells = test system: Caco-2 cells; set-up: method as in PMID 21914964; details: cited from earlier work
[1] = target: LAT1/LAT2 (System L transporters) in BeWo-CTB cells (Homo sapiens, UniProt Q01650); test: Leucine uptake inhibition in BeWo-CTB (undifferentiated BeWo cells), Na+-free buffer, 3H-leucine; assay type: cell-based; details: for EC50: 3 min
Sequence of LAT1/LAT2 (System L transporters) in BeWo-CTB cells (Q01650 whole entry): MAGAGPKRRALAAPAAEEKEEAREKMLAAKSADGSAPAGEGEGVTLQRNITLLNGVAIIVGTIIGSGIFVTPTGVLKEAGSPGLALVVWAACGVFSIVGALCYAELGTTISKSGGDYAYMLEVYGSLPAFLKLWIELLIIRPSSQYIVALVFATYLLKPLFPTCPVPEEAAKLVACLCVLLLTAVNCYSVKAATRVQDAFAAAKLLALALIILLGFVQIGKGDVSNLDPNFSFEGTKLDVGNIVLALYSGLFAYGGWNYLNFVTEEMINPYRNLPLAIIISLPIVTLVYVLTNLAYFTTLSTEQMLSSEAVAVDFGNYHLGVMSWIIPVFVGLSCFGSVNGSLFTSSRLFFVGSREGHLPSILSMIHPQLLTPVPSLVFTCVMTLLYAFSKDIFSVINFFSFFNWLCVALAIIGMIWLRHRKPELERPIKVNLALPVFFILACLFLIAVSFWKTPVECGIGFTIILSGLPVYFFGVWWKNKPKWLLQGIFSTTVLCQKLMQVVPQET
Sequence of LAT1/LAT2 (System L transporters) in BeWo-CTB cells (P08195 103-630 partner): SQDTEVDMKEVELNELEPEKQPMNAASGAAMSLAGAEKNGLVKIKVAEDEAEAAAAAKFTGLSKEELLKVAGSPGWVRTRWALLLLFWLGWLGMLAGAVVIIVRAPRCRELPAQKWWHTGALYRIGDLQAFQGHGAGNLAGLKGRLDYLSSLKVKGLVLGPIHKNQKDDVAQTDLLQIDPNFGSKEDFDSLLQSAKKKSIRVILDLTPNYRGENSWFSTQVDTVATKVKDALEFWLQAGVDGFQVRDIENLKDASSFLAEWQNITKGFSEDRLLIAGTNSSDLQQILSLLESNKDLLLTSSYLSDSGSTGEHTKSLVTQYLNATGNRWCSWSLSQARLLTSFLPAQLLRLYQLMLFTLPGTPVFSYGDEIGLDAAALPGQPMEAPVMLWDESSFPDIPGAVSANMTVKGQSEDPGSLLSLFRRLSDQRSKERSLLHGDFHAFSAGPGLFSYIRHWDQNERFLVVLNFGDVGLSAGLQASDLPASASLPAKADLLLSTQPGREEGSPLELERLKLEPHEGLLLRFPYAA

[2] = test system: LAT1/LAT2 (System L transporters) in BeWo-STB cells; test: Leucine uptake inhibition in BeWo-STB (forskolin-differentiated BeWo cells), Na+-free buffer, 3H-leucine; assay type: cell-based, human; details: for residual leucine uptake: 10 µM; for inhibition of leucine uptake / EC50: BeWo-STB; for inhibition of leucine uptake: 10 µmol/L inhibitor; for EC50: 3 min
Protocol: (§1) BeWo cells (clone b30) were cultured in DMEM containing 1.0 g/L glucose (DMEM‐lowGlucose; Gibco). […] Cells were cultured in DMEM‐lowGlucose at 37°C with 5% CO2 atmosphere for 7‐14 days.
JPH203, JG336 and JX009 were synthesized following the routes described in the European Patent Application EP 2‐959‐918‐A1, 2014. Compounds were obtained as hydrochlorides, dissolved in dimethyl sulfoxide (DMSO, Merck, Darmstadt, Germany) and applied in the concentration range from 0.001 to 31.6 μmol/L. JPH203 has been characterized as highly LAT1‐specific; JX009 is described as LAT1 and LAT2‐specific inhibitor. ^37 JG336 is a derivate of JPH203 with an additional methoxy group at the peripheral phenyl moiety residue. Compound structures are depicted in Figure 4. The ^1H‐NNMR and ^13C‐NMR spectra data of the compounds were in agreement with the expected structures and are included in the Supporting Information.
FIGURE 4 Inhibition of leucine uptake in BeWo cells using small molecule inhibitors with different specificities. Dose‐response experiments in BeWo‐cytotrophoblasts (BeWo‐CTB) and forskolin‐stimulated BeWo‐syncytiotrophoblasts (BeWo‐STB) for the established LAT1‐specific inhibitor JPH203 (A) and for the alternative compound JG336 which carries an additional methoxy group as marked in the dashed red box (B). […] BCH is a widely accepted inhibitor blocking all System L mediated transport. […] (A‐C) The new inhibitors JG336 and JX009 as well as JPH203 reached maximal inhibition (first concentration without significant difference to the bottom value) at a concentration of 10 µmol/L, JG336 required 1 µmol/L for maximal inhibition in BeWo‐CTB. BCH reached maximal inhibition at 1 mmol/L in both differentiation stages. […] Dose‐response kinetics were calculated using the nonlinear four‐parameter model [Y = Bottom + (Top − Bottom)/(1 + 10^((LogEC50‐X)*HillSlope))] and ordinary fit with GraphPad Prism software.

[3] = target: SLC7 transporters in HT-29 cells (Homo sapiens, UniProt Q01650); test: Leucine uptake inhibition in HT-29 cells; details: for EC50: EC50 of leucine uptake inhibition, Na+-free Hanks buffer
Sequence of SLC7 transporters in HT-29 cells (Q01650 whole entry): as the sequence (Q01650 whole entry) above
Sequence of SLC7 transporters in HT-29 cells (P08195 102-630 partner): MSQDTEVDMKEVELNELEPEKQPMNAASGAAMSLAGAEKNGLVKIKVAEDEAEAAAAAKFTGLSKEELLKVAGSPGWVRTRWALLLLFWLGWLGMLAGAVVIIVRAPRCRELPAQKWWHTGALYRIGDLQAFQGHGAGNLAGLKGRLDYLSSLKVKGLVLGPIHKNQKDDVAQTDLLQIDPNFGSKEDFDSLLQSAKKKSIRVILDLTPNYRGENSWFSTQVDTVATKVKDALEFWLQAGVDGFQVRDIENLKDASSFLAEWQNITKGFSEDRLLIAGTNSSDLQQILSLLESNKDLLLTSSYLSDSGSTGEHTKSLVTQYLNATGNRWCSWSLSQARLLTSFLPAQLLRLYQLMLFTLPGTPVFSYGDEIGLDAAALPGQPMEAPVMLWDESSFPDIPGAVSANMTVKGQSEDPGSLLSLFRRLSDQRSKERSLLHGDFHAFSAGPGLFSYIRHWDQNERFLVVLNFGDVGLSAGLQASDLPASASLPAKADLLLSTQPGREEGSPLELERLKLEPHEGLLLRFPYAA

[4] = test system: LAT1/LAT2 (System L transporters) in polarized BeWo monolayer; test: Leucine transfer across polarized BeWo monolayer (Transwell), apical to basal, and intracellular leucine content; assay type: cell-based, human
Protocol: as §1
Before starting the transfer experiment, the formation of a tight trophoblast monolayer in BeWo cells was monitored by measuring transepithelial electrical resistance (TEER, [Ω*cm^2]) and passive diffusion as reported previously. ^38 TEER and cellular capacitance (Ccl, [µF/cm^2]) were measured every 30 minutes and analysed using the cellZscope system (nanoAnalytics, Münster, Germany) according to the manufacturer's instructions. The apparent permeability coefficient (Papp, [cm/s]) was calculated by measuring the rates of passive transfer of the paracellular pathway marker Lucifer yellow (LY) as previously described. ^39 BeWo monolayers with verified tightness were selected after 7 days of culturing on Transwell® membranes and randomly assigned to leucine transfer time courses and inhibition experiments. […] Radioactivity was quantified using Tri‐carb 2100TR Liquid Scintillation Counter (PerkinElmer).
FIGURE 5 Relevance of LAT1 and System L inhibition in leucine transfer across the placental barrier in vitro. A, Leucine transfer across a tight BeWo monolayer was measured from the apical (ie upper compartment) towards the basal (ie lower compartment) side during 6 h using the Transwell® system. […]

[5] = BeWo-CTB, 167 µmol/L leucine, Na+-free Hank's buffer, read-out: EC50 of leucine uptake inhibition
[6] = BeWo-CTB, 167.2 µmol/L leucine, four-parameter fit, read-out: EC50 (best-fit value in Figure 4)
[7] = 167 µmol/L leucine, Na+-free Hank's buffer, read-out: EC50 of leucine uptake inhibition
[8] = 167.2 µmol/L leucine, four-parameter fit, read-out: EC50 (best-fit value in Figure 4)

Compound: Nc1cc(COc2c(Cl)cc(C[C@H](N)C(=O)O)cc2Cl)c2oc(-c3ccccc3)nc2c1 [JPH203]
- permeability (membrane and cell layer) (Caco-2 cells): has been shown
- EC50 [1, 5]: 3.1 µM
- EC50 [1, 6]: 3.08 µM
- Bottom of dose-response fit (leucine uptake at maximal inhibition) ([1]; BeWo-CTB, four-parameter fit): 0.716 nmol/mg protein
- Top of dose-response fit (leucine uptake) ([1]; BeWo-CTB, four-parameter fit): 3.888 nmol/mg protein
- Bottom of dose-response fit (leucine uptake at maximal inhibition) [2]: 3.758 nmol/mg protein
- Top of dose-response fit (leucine uptake) [2]: 8.593 nmol/mg protein
- concentration reaching maximal inhibition (first concentration without significant difference to bottom value) [2]: 10 µmol/L
- residual leucine uptake [2]: 3.8 nmol/mg protein
- inhibition of leucine uptake [2]: 56.3% and 56%
- EC50 [2, 7]: 2.55 µM and 2.6 µM
- extent of leucine uptake inhibition ([3]; 167µM leucine): complete leucine uptake inhibition
- EC50 ([3]; 30µM leucine): 0.15 µM
- EC50 ([3]; 167µM leucine, 3min): 2.17 µM

Compound: CN(C)c1ccc(-c2cccc(Oc3cccc(C[C@H](N)C(=O)O)c3)c2)cn1 [JX009]
- decrease of intracellular 3H-leucine content of BeWo monolayer ([4]; 10 µM): no effect
- decrease of intracellular 3H-leucine content of BeWo monolayer ([4]; 10 µmol/L, end of transfer experiment (6 hours)): intracellular leucine retention; also recorded: unchanged
- inhibition of leucine uptake ([1]; BeWo-CTB (regardless of differentiation stage)): 87%
- EC50 [1, 5]: 3.9 µM and < 4 µM
- EC50 [1, 6]: 3.86 µM
- Bottom of dose-response fit (leucine uptake at maximal inhibition) ([1]; BeWo-CTB, four-parameter fit): 0.774 nmol/mg protein
- Top of dose-response fit (leucine uptake) ([1]; BeWo-CTB, four-parameter fit): 4.066 nmol/mg protein
- Bottom of dose-response fit (leucine uptake at maximal inhibition) [2]: 1.093 nmol/mg protein
- Top of dose-response fit (leucine uptake) [2]: 8.426 nmol/mg protein
- concentration reaching maximal inhibition (first concentration without significant difference to bottom value) [2]: 10 µmol/L
- inhibition of leucine uptake [2]: 87%
- EC50 [2, 7]: 2.35 µM and 2.3 µM
- EC50 [2, 8]: 2.35 µM
- extent of leucine uptake inhibition ([3]; 167µM leucine): complete leucine uptake inhibition
- EC50 ([3]; 30µM leucine): 0.6 µM
- EC50 ([3]; 167µM leucine, 3min): 3.76 µM

Compound: NC1(C(=O)O)CC2CCC1C2 (stereo not drawn) [BCH, 2‐amino‐2‐norbornane‐carboxylic acid]
- Bottom of dose-response fit (leucine uptake at maximal inhibition) ([1]; BeWo-CTB, four-parameter fit): 0 nmol/mg protein
- Top of dose-response fit (leucine uptake) ([1]; BeWo-CTB, four-parameter fit): 5.305 nmol/mg protein
- EC50 ([1]; read-out: EC50 (best-fit value in Figure 4), BeWo-CTB, 167.2 µmol/L leucine, four-parameter fit): 709 µM
- EC50 ([1]; read-out: EC50 of leucine uptake inhibition, BeWo-CTB, 167 µmol/L leucine, Na+-free Hank's buffer): 709 µM
- Bottom of dose-response fit (leucine uptake at maximal inhibition) [2]: 0 nmol/mg protein
- Top of dose-response fit (leucine uptake) [2]: 9.770 nmol/mg protein
- times less effective than JX009 [2]: > 100 times
- EC50 [2, 7]: 442 µM
- EC50 [2, 8]: 442 µM

Compound: COc1ccc(-c2nc3cc(N)cc(COc4c(Cl)cc(C[C@H](N)C(=O)O)cc4Cl)c3o2)cc1 [JG336]
- concentration required for maximal inhibition ([1]; BeWo-CTB): 1 µmol/L
- EC50 [1, 5]: 0.8 µM
- EC50 [1, 6]: 0.799 µM
- Bottom of dose-response fit (leucine uptake at maximal inhibition) ([1]; BeWo-CTB, four-parameter fit): 0.622 nmol/mg protein
- Top of dose-response fit (leucine uptake) ([1]; BeWo-CTB, four-parameter fit): 2.673 nmol/mg protein
- Bottom of dose-response fit (leucine uptake at maximal inhibition) [2]: 3.212 nmol/mg protein
- Top of dose-response fit (leucine uptake) [2]: 8.534 nmol/mg protein
- concentration reaching maximal inhibition (first concentration without significant difference to bottom value) [2]: 10 µmol/L
- residual leucine uptake [2]: 3.2 nmol/mg protein
- inhibition of leucine uptake [2]: 62.4% and 62%
- EC50 [2, 7]: 1.99 µM and 2 µM
- EC50 [2, 8]: 1.99 µM
- extent of leucine uptake inhibition ([3]; 167µM leucine): complete leucine uptake inhibition
- EC50 ([3]; 30µM leucine): 0.21 µM
- EC50 ([3]; 167µM leucine, 3min): 0.73 µM
